Results on 14 compounds are retold here after patent US7754709B2 (Solvay Pharmaceuticals BV, priority 2003, dated 2010).

Broadly, the inhibition is the change of the read-out against control, counted positive when it falls.

Common to all, as to type: cell-based
Experiment [1] deals with T1, 17β-hydroxysteroid dehydrogenase type 1 (Homo sapiens, UniProt P14061).
T1 construct: expressed in transfected cells; host or cells: MCF-7
T1 sequence (P14061 1-328): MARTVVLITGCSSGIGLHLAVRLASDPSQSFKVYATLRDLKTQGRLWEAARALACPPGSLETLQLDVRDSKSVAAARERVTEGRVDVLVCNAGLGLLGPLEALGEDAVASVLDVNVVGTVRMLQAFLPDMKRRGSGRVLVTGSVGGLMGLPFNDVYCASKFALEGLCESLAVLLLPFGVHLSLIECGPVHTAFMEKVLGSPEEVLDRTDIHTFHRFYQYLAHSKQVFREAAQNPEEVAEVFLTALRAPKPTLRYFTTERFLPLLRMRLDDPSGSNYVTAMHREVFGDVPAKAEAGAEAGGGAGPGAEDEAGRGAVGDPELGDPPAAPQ
Description: Inhibition of 17β-HSD type 1 in MCF-7 cells stably expressing the isoenzyme (HPLC, tritium labeled estrone). The settings on record: 2 nM estrone; for inhibition at 1 µM: MCF7, 1 μM compound; for inhibition at 1 µM / inhibition at 10 µM: read-out: % Inhibition of the 17β-HSD enzyme type 1 (HSD1); for inhibition at 10 µM: MCF7, 10 μM compound. From the text:
(§1) Biological Testing Materials and Methods 1. Inhibition of the 17β-hydroxysteroid dehydrogenase type 1, type 2 and type 3 enzyme
(§2) The compounds were screened in respect of 17β-HSD enzyme activity in vitro on established M CF-7 cell lines, each stably expressing one of the respective 17β-HSD isoenzymes. The interconversion of substrate by each isoenzyme and the 17β-HSD inhibiting activity of chemical compounds in these cell lines were detected by HPLC system.
(§3) Varying amounts of the test compounds were incubated in the growth medium of the 17β-HSD expressing cells together tritium labeled substrate (2 nM estrone for 17β-HSD type 1; 2 nM estradiol for 17β-HSD type 2; and 2 nM androstenedione for 17β-HSD type 3). The medium samples were removed after exact incubation time and the reaction is stopped by trichloroacetic acid (TCA). The samples were analyzed by HPLC-coupled flow scintillation analysis.
(§4) For each enzyme type, the HSD-inhibiting activity of an individual test compound was calculated by comparing the conversion of a control sample without any test compound (referred to as “Negative Control”) to the (reduced) conversion of the test sample containing the particular compound to be tested (referred to as “Test Sample”).
(§5) Two concentrations of each compound were used. The number of the compound refers to the numbers indicated in the Experimental Section.

Experiment [2] has as its target T2, 17β-hydroxysteroid dehydrogenase type 3 (Homo sapiens, UniProt P37058).
T2 construct: expressed in transfected cells; host or cells: MCF-7
T2 sequence (P37058 1-310): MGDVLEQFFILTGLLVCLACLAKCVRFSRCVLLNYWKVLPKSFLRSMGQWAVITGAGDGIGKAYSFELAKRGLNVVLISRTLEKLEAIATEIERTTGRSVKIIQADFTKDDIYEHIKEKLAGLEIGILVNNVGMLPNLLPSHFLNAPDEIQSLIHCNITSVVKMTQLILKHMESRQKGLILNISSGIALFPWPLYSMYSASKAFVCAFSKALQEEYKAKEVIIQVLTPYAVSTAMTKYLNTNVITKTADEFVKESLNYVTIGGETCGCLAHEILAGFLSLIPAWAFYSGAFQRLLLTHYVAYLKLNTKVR
As to the kind of experiment: Inhibition of 17β-HSD type 3 in MCF-7 cells stably expressing the isoenzyme (HPLC, tritium labeled androstenedione). The settings on record: 2 nM androstenedione; for inhibition at 1 µM: MCF7, 1 μM compound; for inhibition at 1 µM / inhibition at 10 µM: read-out: % Inhibition of the 17β-HSD enzyme type 3 (HSD3); for inhibition at 10 µM: MCF7, 10 μM compound.
From the text: as §1, §2, §3, §4, §5

Experiment [3] has as its target T3, 17β-hydroxysteroid dehydrogenase type 2 (Homo sapiens, UniProt P37059).
T3 construct: expressed in transfected cells; host or cells: MCF-7
T3 sequence (P37059 1-387): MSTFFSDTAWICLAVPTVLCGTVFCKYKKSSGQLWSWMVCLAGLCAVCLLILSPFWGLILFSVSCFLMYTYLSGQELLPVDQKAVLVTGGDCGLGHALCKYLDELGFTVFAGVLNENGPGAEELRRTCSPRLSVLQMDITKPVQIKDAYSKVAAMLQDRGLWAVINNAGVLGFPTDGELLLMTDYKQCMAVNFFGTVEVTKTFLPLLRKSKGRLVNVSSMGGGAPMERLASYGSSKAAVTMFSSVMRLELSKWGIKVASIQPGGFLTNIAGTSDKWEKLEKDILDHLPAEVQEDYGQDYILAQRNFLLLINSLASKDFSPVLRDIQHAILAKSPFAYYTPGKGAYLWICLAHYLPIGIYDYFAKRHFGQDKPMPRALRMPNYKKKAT
As to the kind of experiment: Inhibition of 17β-HSD type 2 in MCF-7 cells stably expressing the isoenzyme (HPLC, tritium labeled estradiol). The settings on record: 2 nM estradiol, read-out: % Inhibition of the 17β-HSD enzyme type 2 (HSD2); for inhibition at 1 µM: MCF7, 1 μM compound; for inhibition at 10 µM: MCF7, 10 μM compound.
From the text: as §1, §2, §3, §4, §5

SMILES strings stand for the structures. Several values for one entry are separate records, joined by “and”; a condition that tells them apart may be missing. Identical values can stand only once.

As to `O=c1c2c3c(sc2nc2n1CCCCC2)CCCC3` [Compound 2a, 2,3,4,7,8,9,10,11-Octahydro[1]benzothieno[2′,3′:4,5]pyrimido-[1,2-a]azepin-13(1H)-one], the inhibition at 1 µM in experiment [1] was 10%; in experiment [2] it was 39%; in experiment [3] it was 16.2%. Also, the inhibition at 10 µM worked out at 45.9% in experiment [1], 24.9% in experiment [2] and 23.4% in experiment [3].

With `O=c1c2c3c(sc2nc2n1CCCCC2)CCC3` [Compound 2b, 1,2,3,6,7,8,9,10-Octahydro-12H-cyclopenta[4′,5′]thieno[2′,3′:4,5]pyrimido[1,2-a]-azepin-12-one], the inhibition at 1 µM in experiment [1] was found to be 21%; in experiment [2] it was 4.2%; in experiment [3], 15.9%. Besides, the inhibition at 10 µM in experiment [1] worked out at 15%; in experiment [2], 9.5%; in experiment [3], 21.4%.

For the compound `O=c1c2c3c(sc2nc2n1CCCCC2)CCCCC3` [Compound 2c, 1,2,3,4,5,8,9,10,11,12-Decahydro-14H-cyclohepta[4′,5′]thieno[2′,3′:4,5]pyrimido-[1,2-a]azepin-14-one], the inhibition at 1 µM amounted to 22.7% in experiment [1], 50.8% in experiment [2] and 8.9% in experiment [3]. For the same compound, the inhibition at 10 µM in experiment [1] is 39.8%; in experiment [2], 47%; in experiment [3], 13.5%.

Consider `O=c1c2c3c(sc2nc2n1CCCC2)CCCC3` [Compound 2e, 1,2,3,4,7,8,9,10-Octahydro-12H-[1]benzothieno[2,3-d]pyrido[1,2-a]pyrimidin-12-one], for which the inhibition at 1 µM came to 15.8% in experiment [1], 46.8% in experiment [2] and 26% in experiment [3]. Further, the inhibition at 10 µM worked out at 20% in experiment [1], 38.8% in experiment [2] and 28.9% in experiment [3].

`O=c1c2c3c(sc2nc2n1CCC2)CCCC3` [Compound 2f, 2,3,6,7,8,9-Hexahydro[1]benzothieno[2,3-d]pyrrolo[1,2-a]pyrimidin-10(1H)-one]: the inhibition at 1 µM in experiment [1] is 19.9%; in experiment [2] it was 48.2%; in experiment [3] it was 37%. Further, the figures for the inhibition at 10 µM in experiment [1], in experiment [2] and in experiment [3] were 19.2%, 40.4% and 32.4%, respectively.

For `Cc1nc2sc3c(c2c(=O)n1C)CCCC3` [Compound 2g, 5,6,7,8-Tetrahydro-2,3-dimethyl[1]benzothieno[2,3-d]pyrimidin-4(3H)-one], the inhibition at 1 µM amounted to 30.7% in experiment [1], 51.7% in experiment [2] and 44.9% in experiment [3]. Moreover, the inhibition at 10 µM in experiment [1] came to 37%; in experiment [2], 51.3%; in experiment [3], 24.9%.

As to `CCc1nc2sc3c(c2c(=O)n1C)CCCC3` [Compound 2i, 5,6,7,8-Tetrahydro-2-ethyl-3-methyl[1]benzothieno[2,3-d]pyrimidin-4(3H)-one], the inhibition at 1 µM turned out to be 12.7% in experiment [1], 4.4% in experiment [2] and 20.6% in experiment [3]. In addition, the inhibition at 10 µM was determined as 18.5% in experiment [1], 9.9% in experiment [2] and 29.4% in experiment [3].

Consider `O=C1CCc2c1sc1nc3n(c(=O)c21)CCCCC3` [Compound 3b, 1,2,6,7,8,9,10-heptahydrocyclopenta[4′,5′]thieno[2′,3′:4,5]pyrimido[1,2-a]-azepin-3,12-dione], for which the values for the inhibition at 1 µM in experiment [1], in experiment [2] and in experiment [3] were 13.5%, 0.3% and 14.1%, respectively. Besides, the values for the inhibition at 10 µM in experiment [1], in experiment [2] and in experiment [3] were 20.7%, 13.7% and 25.4%, respectively.

For the compound `O=C1CCCc2c1sc1nc3n(c(=O)c21)CCCCCC3` [Compound 3d, 1,2,7,8,9,10,11,12-octahydro[1]benzothieno[2′,3′:4,5]pyrimido-[1,2-a]azocin-4, 14(3H)-dione], the figures for the “% Inhibition of the 17β-HSD enzyme type 1 (HSD1)” value in experiment [1] (1 μM compound) and in experiment [1] (10 μM compound) were 18.2% and 37.6%, respectively. In addition, the inhibition at 1 µM in experiment [1] was found to be 14.3%; in experiment [2], 15.3%; in experiment [3] it was 14.1%. In addition, the inhibition at 10 µM in experiment [1] came to 42.9%; in experiment [3], 11.1%. The “% Inhibition of the 17β-HSD enzyme type 3 (HSD3)” value is 22.3% in experiment [2] (1 μM compound); 16.7% and 8.1% in experiment [2] (10 μM compound).

As to `O=C1CCCc2c1sc1nc3n(c(=O)c21)CCCC3` [Compound 3e], the inhibition at 1 µM in experiment [1] was found to be 6.3%; in experiment [2] it was 38.5%; in experiment [3] it was 25.7%. Moreover, the inhibition at 10 µM in experiment [1] stood at 35.8%; in experiment [2] it was 47.4%; in experiment [3] it was 16.3%.

On to `O=C1CCCc2c1sc1nc3n(c(=O)c21)CCC3` [Compound 3f, 2,3,8,9-Tetrahydro[1]benzothieno[2,3-d]pyrrolo[1,2-a]pyrimidine-6,10(1H,7H)-dione], for which the inhibition at 1 µM in experiment [1] was found to be 8.7%; in experiment [2], 43.9%; in experiment [3] it was 31.1%. Further, the results for the inhibition at 10 µM in experiment [1], in experiment [2] and in experiment [3] were 22%, 40.2% and 21.8%, respectively.

`CC1CCc2c(sc3nc4n(c(=O)c23)CCCCC4)C1O` (stereo not drawn) [Compound 32, 4-Hydroxy-3-methyl-2,3,4,7,8,9,10,1-octahydro [1]benzothieno[2′,3′: 4,5]pyrimido-[1,2-a]azepin-13(1H)-one]: in experiment [1], the inhibition at 1 µM is 19.7% and the inhibition at 10 µM is 22.5%. For the same compound, in experiment [3], the inhibition at 1 µM came out at 14% and the inhibition at 10 µM was -5.1%.

For `CCCSC1=C(C=O)CCc2c1sc1nc3n(c(=O)c21)CCC(C(=O)O)CC3` (stereo not drawn) [Compound 33, 3-Formyl-1,2,7,8,9,10,11,13-octahydro-13-oxo-4-(propylthio)-[1]benzothieno[2′,3′: 4,5] pyrimido[1,2-a]azepine-9-carboxylic acid], in experiment [1], the inhibition at 1 µM was 15.3% and the inhibition at 10 µM was found to be 22.6%. Further, in experiment [3], the inhibition at 1 µM worked out at 5% and the inhibition at 10 µM was -0.1%.

As for `CCCSC1=C(C=O)CCc2c1sc1nc3n(c(=O)c21)CCC(C)CC3` (stereo not drawn) [Compound 34, 9-Methyl-1,2,7,8,9,10,11,13-octahydro-13-oxo-4-(propylthio)-[1]benzothieno[2′,3′: 4,5]-pyrimido[1,2-a]azepine-3-carbaldehyde], the inhibition at 1 µM amounted to 14.9% in experiment [1] and 13% in experiment [3]. The inhibition at 10 µM in experiment [1] is 48.1%; in experiment [3], -0.5%.
